A value given as a limit tells only on which side of the number the result lay.

This assay concerns the target T1, Adenosine receptor A1 (Bos taurus, UniProt P28190).
T1 sequence (P28190 whole entry): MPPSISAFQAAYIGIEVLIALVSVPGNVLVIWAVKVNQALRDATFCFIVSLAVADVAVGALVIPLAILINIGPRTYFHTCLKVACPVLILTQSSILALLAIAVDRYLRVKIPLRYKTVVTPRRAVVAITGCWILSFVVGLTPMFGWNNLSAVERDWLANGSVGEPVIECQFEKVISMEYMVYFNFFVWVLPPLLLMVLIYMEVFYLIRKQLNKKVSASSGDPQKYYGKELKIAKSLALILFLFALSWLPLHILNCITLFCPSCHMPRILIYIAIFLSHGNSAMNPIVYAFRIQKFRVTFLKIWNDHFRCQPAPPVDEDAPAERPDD
The Ki is the dissociation constant of the complex between target and ligand, obtained from inhibition or displacement. In turn, `Cn1c(=O)c2c(ncn2C)n(C)c1=O` yielded a Ki above 10 µM.

Compound `Cn1c(=O)[nH]c2ncn(C)c2c1=O` [1,7-dimethylxanthine] showed a Ki above 10 µM. In turn, `CC(=O)CCCCn1c(=O)c2c(ncn2C)n(C)c1=O` [1-(5-Oxohexyl)theobromine (pentoxifylline)] gave an inhibitory constant (Ki) above 10 µM. In the case of `CC(C)Cn1c(=O)n(C)c(=O)c2[nH]cnc21` [1-methyl-3-(2-methylpropyl)-2,3,6,7-tetrahydro-1H-purine-2,6-dione] it was 2.5 µM; in that of `CCCn1c(=O)[nH]c(=O)c2[nH]cnc21` [3-Propylxanthine (enprofylline)], above 10 µM.

With `CC(O)Cn1cnc2c1c(=O)n(C)c(=O)n2C` (stereo unspecified) [7-(2-Hydroxy-propyl)-1,3-dimethyl-3,7-dihydro-purine-2,6-dione(Proxyphylline)], the Ki was above 10 µM. As for `CC(=O)Oc1ccc(-c2nc3c([nH]2)c(=O)n(C)c(=O)n3C)cc1` [8-(4-Acetoxyphenyl)theophylline], the figure is 0.023 µM; as for `Cn1c(=O)c2nc(-c3ccc(O)cc3)[nH]c2n(C)c1=O` [8-(4-Hydroxy-phenyl)-1,3-dimethyl-3,7-dihydro-purine-2,6-dione], 0.0034 µM. The compound `CCCn1c(=O)c2nc(-c3ccc(O)cc3)[nH]c2n(CCC)c1=O` [8-(4-Hydroxy-phenyl)-1,3-dipropyl-3,9-dihydro-purine-2,6-dione] came in with a Ki of 0.0032 µM. For the compound `Cn1c(=O)c2c(ncn2CCO)n(C)c1=O` [BETA-HYDROXYETHYL THEOPHYLLINE], the Ki was above 10 µM.

The compound `Cn1c(=O)c2c(ncn2C[C@H](O)CO)n(C)c1=O` [Diprophylline] showed a Ki above 10 µM. As for `O=c1[nH]c(=O)c2[nH]cnc2[nH]1` [NSC_1188], the figure is above 10 µM; as for `CCN(CC)CCn1cnc2c1c(=O)n(C)c(=O)n2C` [NSC_28329], above 10 µM; as for `CC(O)Cn1c(=O)c2c(ncn2C)n(C)c1=O` (stereo unspecified) [NSC_66120], above 10 µM. As for `CCCn1c(=O)c2[nH]c(-c3ccc(Cl)cc3N)nc2n(CCC)c1=O` [NSC_92411], the figure is 0.0003 µM; as for `Cn1cnc2c1c(=O)[nH]c(=O)n2C` [theobromine], above 10 µM.

The values are drawn from BindingDB's records for doi:10.1007/bf00572436 (1985).
